Experiment: hydrogen peroxide decomposition assay of catalase recovered from PLGA matrices
Format: biochemical
Details: catalase removed from PLGA matrices by degradation of the polymer; processed in supercritical CO2 at 45° C. and 200 bar, 30 minutes
Method: In a specific example of the use of the invention particles of the protein catalase (ca mean diameter 50 micron) are mixed with the biodegradable polymer poly(DL-lactide-co-glycolide) (PLGA) as per example 3, in the presence of super critical CO2 at 45° C. and 200 bar. After agitation for 30 minutes, the autoclave was depressurized leading to solid dispersions of a monolith form, in which catalase particles are intimately mixed with the biodegradable polymer. FIGS. 3a) and 3b) are scanning electron microscopy images at respective higher and lower magnifications of 10 micron (particles and micropores visible) and 50 micron (particles embedded in “channels”).
Removal of the catalase from the matrices by degradation of the polymer enabled the activity of the enzyme to be quantified using a hydrogen peroxide decomposition assay.

catalase
activity of the enzyme after SCF processing: lost no appreciable activity

Source: patent US6670407B2, “Biofunctional polymers prepared in supercritical fluid” (University of Nottingham, priority 1997, dated 2003)
